One series has as its system MES seizures. The settings on record: in vivo; cited from earlier work.
A further series concerns 6 Hz seizures. Conditions: dose-dependent manner; cited from earlier work.
A further series concerns the target mGlu5a (Homo sapiens, UniProt P41594). The settings on record: cited from earlier work.
A short description of series [1]: Minimal motor impairment (rotarod). It counts as in vivo, mice. Conditions: for # rotarod motor impairment/# tested: 0.5 h. The method, then: Acute MMI was assessed by a combination of direct observations of the animal for overt symptoms of the animal's neurological or muscular function. In mice, the rotarod procedure was used to disclose minimal muscular or neurological impairment. When a mouse is placed on a rod that rotates at a speed of 6 rpm, the animal can maintain its equilibrium for long periods of time. The animal was considered toxic if it fell off this rotating rod three times during a 1 min period.
In the determination of an ED50 or TD50 for each test compound, the first dose administered is usually the same dose as that used in a successful TPE determination.
If the initial dose employed was effective or toxic in more than 50% of animals, the next dose would be one-half that of the initial dose; if the initial dose was effective or toxic in less than 50% of animals, the following dose would be twice that of the initial dose. Third and fourth doses were selected to produce an evenly spaced dose response line. There should be a minimum of 4 points either including or lying between 0 and 100%.

The subject of a further series is corneal kindled seizures. Kind of series: Mouse corneal kindling model. The class given is in vivo, mice. Conditions: 100 mg/kg s.c.; Racine score 0-5. The method, then: After the mice reached a stable kindled state, the test compound or vehicle was administered and, at the previously determined TPE, each animal was given the electrical stimulus indicated above. […] One dose of LEV and two doses of Co.

The target of the next series is mGlu1a (Homo sapiens, UniProt Q13255). Conditions: cited from earlier work.
The subject of series [2] is 6 Hz (32 mA) psychomotor seizures. Kind of series: 6 Hz psychomotor seizure test, 32 mA (incl. TPE determination). The class given is in vivo, mice. Conditions: for # protected/# tested: 0.5 h. The method, then: Test compounds were administered using an optimal fluid volume to body fluid ratio. Test compounds were administered to mice in a volume of 0.01 mL/g of body weight (White H. S., et al., General Principles: Experimental selection, quantification, and evaluation of antiepileptic drugs, in Antiepileptic Drugs, Fourth Edition, […], and B. S. Meldrum, Editors. 1995, Raven Press, Ltd.: New York, pp. 99-110). For subcutaneous (s.c.) administration, the test compounds were administered into a loose fold of skin along the back of the animal except compound 6-b, which was administered orally (p.o). […] The animals were maintained on an adequate diet (Prolab RMH 3000) and allowed free access to food and water, except during the short time they were removed from their cage for testing. Animals newly received in the laboratory were allowed sufficient time to correct for possible food and water restriction incurred during transit before being employed in testing. All mice were housed in plastic cages in specially constructed rooms with controlled humidity, exchange of air and controlled lighting (12 hours on-12 hours off). The animals were housed, fed, and handled in a manner consistent with the recommendations in the National Council Publication, “Guide for the Care and Use of Laboratory Animals”. In the determination of an ED50 or TD50 for each test compound, the first dose administered is usually the same dose as that used in a successful TPE determination. […] Third and fourth doses were selected to produce an evenly spaced dose response line. […] TPE was determined using the 6 Hz (32 mA) assay. […] The 6 Hz seizure test is used as a model of pharmacoresistant limbic seizures. […] Focal seizures were induced in mice via corneal stimulation (6 Hz, 0.2 msec rectangular pulse, 3 sec duration; Barton et al. 2001). Mice were tested at either 32 mA or 44 mA. […] The seizures that arise from corneal stimulation in this assay are characterized by a minimal clonic phase followed by stereotyped automatistic behaviors including stun, forelimb clonus, twitching of the vibrissae, and Straub-tail. Animals not displaying these behaviors were considered protected.

In series [3] the test system is 6 Hz (44 mA) psychomotor seizures. Kind of series: 6 Hz psychomotor seizure test, 44 mA (alone, combination with LEV, isobolographic study). The class given is in vivo, mice. The method, then: Test compounds were administered using an optimal fluid volume to body fluid ratio. Test compounds were administered to mice in a volume of 0.01 mL/g of body weight (White H. S., et al., General Principles: Experimental selection, quantification, and evaluation of antiepileptic drugs, in Antiepileptic Drugs, Fourth Edition, […], and B. S. Meldrum, Editors. 1995, Raven Press, Ltd.: New York, pp. 99-110). For subcutaneous (s.c.) administration, the test compounds were administered into a loose fold of skin along the back of the animal except compound 6-b, which was administered orally (p.o). […] The animals were maintained on an adequate diet (Prolab RMH 3000) and allowed free access to food and water, except during the short time they were removed from their cage for testing. Animals newly received in the laboratory were allowed sufficient time to correct for possible food and water restriction incurred during transit before being employed in testing. All mice were housed in plastic cages in specially constructed rooms with controlled humidity, exchange of air and controlled lighting (12 hours on-12 hours off). The animals were housed, fed, and handled in a manner consistent with the recommendations in the National Council Publication, “Guide for the Care and Use of Laboratory Animals”. In the determination of an ED50 or TD50 for each test compound, the first dose administered is usually the same dose as that used in a successful TPE determination. […] Third and fourth doses were selected to produce an evenly spaced dose response line. […] The 6 Hz seizure test is used as a model of pharmacoresistant limbic seizures. […] Focal seizures were induced in mice via corneal stimulation (6 Hz, 0.2 msec rectangular pulse, 3 sec duration; Barton et al. 2001). Mice were tested at either 32 mA or 44 mA. […] The seizures that arise from corneal stimulation in this assay are characterized by a minimal clonic phase followed by stereotyped automatistic behaviors including stun, forelimb clonus, twitching of the vibrissae, and Straub-tail. Animals not displaying these behaviors were considered protected. […] In addition to recording the efficacy and toxicity data for these compounds alone or in combination, both plasma and brain samples were collected from each of the groups for pharmacokinetic/pharmacokinetic analysis. No pharmacokinetic interaction was observed based on compound levels in the plasma and brain samples (data not shown). Isobolographic studies were conducted for the combined administration of Co. […] Studies were conducted according to previously described methods (Madsen et al. 2011). Initial ED50 values were determined for both Co. […] Co. […] Doses used were proportional to calculated ED50 values. […] Experimental treatment doses (see Table 4) were based on theoretical values and adjusted according to observed effects. Experimentally determined ED50 (+SEM) values for each fixed dose-ratio combination were compared to the theoretical values (t-test) for statistical purposes. […] Subsequently, the experimental combined doses were determined for the same paradigms in the 6 Hz seizure test (Table 4 below).

Structures are written as SMILES.

By TD50 is commonly meant the 50% point of the dose-response relation for the toxic effect studied. As a reminder, the ED50 is the dose that gives a 50% effect, or the effect in half of the subjects.

mGlu5a, sequence (P41594 21-1180 isoform P41594-2): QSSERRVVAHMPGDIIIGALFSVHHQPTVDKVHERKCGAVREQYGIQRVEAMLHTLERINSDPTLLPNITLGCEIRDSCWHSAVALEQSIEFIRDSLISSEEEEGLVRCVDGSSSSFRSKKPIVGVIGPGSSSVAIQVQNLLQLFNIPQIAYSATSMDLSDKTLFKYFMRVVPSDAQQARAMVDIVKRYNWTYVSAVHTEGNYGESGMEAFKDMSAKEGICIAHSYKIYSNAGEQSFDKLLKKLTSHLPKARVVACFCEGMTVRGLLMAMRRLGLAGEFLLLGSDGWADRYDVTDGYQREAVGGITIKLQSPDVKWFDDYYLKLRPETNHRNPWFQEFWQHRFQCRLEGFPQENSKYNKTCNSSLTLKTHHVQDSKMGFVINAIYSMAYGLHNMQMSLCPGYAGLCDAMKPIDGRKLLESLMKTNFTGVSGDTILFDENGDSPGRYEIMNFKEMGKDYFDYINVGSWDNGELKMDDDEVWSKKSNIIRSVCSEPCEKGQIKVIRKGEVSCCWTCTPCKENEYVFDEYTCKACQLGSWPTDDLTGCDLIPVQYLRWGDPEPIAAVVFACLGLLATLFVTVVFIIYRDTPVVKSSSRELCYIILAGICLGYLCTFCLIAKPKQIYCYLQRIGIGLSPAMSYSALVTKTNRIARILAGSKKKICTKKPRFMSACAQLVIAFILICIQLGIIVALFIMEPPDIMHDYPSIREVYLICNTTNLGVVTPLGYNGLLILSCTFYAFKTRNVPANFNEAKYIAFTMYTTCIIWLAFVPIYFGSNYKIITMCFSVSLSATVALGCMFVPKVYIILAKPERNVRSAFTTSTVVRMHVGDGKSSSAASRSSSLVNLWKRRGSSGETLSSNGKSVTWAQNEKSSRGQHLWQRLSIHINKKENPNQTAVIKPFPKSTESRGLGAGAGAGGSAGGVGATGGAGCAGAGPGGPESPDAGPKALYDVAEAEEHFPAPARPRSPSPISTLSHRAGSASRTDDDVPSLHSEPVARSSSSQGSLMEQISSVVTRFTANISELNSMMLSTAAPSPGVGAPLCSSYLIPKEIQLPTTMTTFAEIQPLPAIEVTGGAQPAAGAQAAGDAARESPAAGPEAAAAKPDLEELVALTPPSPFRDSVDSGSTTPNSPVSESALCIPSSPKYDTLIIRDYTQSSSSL
mGlu1a, sequence (Q13255 19-1194): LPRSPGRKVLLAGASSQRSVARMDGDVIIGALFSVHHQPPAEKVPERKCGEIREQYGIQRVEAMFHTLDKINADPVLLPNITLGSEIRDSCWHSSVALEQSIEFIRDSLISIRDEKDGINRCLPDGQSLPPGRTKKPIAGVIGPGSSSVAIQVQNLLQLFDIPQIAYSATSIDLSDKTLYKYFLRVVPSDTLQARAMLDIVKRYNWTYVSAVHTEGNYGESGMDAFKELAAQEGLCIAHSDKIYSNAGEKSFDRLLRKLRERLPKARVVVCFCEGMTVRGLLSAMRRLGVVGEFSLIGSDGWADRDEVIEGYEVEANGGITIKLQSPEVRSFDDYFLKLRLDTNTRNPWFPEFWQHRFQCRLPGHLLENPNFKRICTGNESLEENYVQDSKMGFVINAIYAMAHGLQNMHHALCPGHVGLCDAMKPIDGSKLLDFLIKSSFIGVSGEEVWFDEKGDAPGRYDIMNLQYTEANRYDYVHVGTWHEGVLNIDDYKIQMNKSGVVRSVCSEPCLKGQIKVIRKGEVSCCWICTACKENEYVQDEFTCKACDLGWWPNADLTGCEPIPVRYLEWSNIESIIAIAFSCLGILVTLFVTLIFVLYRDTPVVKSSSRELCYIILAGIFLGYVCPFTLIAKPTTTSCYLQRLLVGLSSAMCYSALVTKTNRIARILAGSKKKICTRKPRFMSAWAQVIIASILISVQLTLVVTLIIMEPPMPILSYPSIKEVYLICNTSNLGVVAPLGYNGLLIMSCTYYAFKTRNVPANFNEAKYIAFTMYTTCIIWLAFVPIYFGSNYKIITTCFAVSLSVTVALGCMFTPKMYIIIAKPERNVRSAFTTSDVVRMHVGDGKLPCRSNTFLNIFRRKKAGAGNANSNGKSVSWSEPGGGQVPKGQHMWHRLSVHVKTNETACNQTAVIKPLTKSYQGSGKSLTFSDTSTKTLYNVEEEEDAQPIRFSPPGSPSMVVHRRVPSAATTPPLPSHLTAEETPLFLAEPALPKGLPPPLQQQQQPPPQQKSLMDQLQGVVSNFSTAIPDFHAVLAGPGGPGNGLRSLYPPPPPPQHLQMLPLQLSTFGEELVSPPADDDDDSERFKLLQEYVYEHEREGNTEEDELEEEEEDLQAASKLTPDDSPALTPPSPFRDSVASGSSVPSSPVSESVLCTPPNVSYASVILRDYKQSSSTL

`N[C@@]1(C(=O)O)CS[C@H]2[C@H](C(=O)O)[C@H]21` [LY389795]: the “activity in maximal electroshock (MES) seizure test” value in the series on MES seizures was “ineffective”. For the same compound, the “activity in the 6 Hz model” value with 6 Hz seizures is recorded as “effective”.
In the case of `N[C@@]1(C(=O)O)CS(=O)(=O)[C@H]2[C@H](C(=O)O)[C@H]21` [LY-404039, reference compound], the “activity at mGlu5a” value on mGlu5a is reported as “no activity”. Moreover, the “# rotarod motor impairment/# tested” value in series [1] (5 mg/kg s.c., 32 mA group) was 1/16; in series [1] (5 mg/kg s.c., 44 mA group), 0/16; in series [1] (10 mg/kg s.c., 32 mA group) it was 0/8; in series [1] (10 mg/kg s.c., 44 mA group), 1/8; in series [1] (20 mg/kg s.c., 32 mA group) it was 1/8; in series [1] (20 mg/kg s.c., 44 mA group), 1/8. Moreover, the “# rotarod motor impairment/# tested” value is reported as 1/8 in series [1] (40 mg/kg s.c., 32 mA group) and 2/8 in series [1] (40 mg/kg s.c., 44 mA group). Moreover, the “mice with impairment out of total” value in series [1] (40 mg/kg s.c., 32 mA and 44 mA groups combined) was “^a40 mg/kg-3 out of 16 total (32 mA and 44 mA combined) with impairment”. Also, the TD50 at 0.5 h in series [1] (mouse, in vivo, sc, rotarod) was over 40 mg/kg. Also, in the series with corneal kindled seizures, the “Seizure score (dose) Corneal kindling” value is 3.1. Moreover, the “activity at mGlu1a” value on mGlu1a is on record as “no activity”. Further, the “# protected/# tested” value in series [2] (5 mg/kg s.c.) is reported as 1/16; in series [2] (10 mg/kg s.c.), 5/8; in series [2] (20 mg/kg s.c.), 6/8; in series [2] (40 mg/kg s.c.), 8/8. In addition, the ED50 in series [2] (Mus musculus, sc, at TPE, read-out: ED50 (95% CI) 32 mA) was 10.2 mg/kg; in series [3] (Mus musculus, sc, at TPE, compound alone, read-out: ED50 (95% CI) 44 mA), 14.1 mg/kg. Further, the “activity in the 6 Hz 32 mA test” value in series [2] (result in words) is recorded as “activity in both 6 Hz tests was seen”. For the same compound, the “ED50 (95% CI) 32 mA” value in series [2] (s.c., at TPE) is reported as “ED50 (95% CI): 10.9 mg/kg (7.8 to 15.9)”. For the same compound, the “activity when administered alone” value in series [3] (5 mg/kg s.c.) is “^bLY404039 (s.c.) 5 mg/kg tested in combination with LEV (i.p.); LY404039 5 mg/kg was not active when administered alone”. In addition, the responders at 5 mg/kg in series [3] (Mus musculus, sc, 0.5 h, 5 mg/kg s.c., 0.5 h, read-out: # protected/# tested) worked out at 0%. In addition, in series [3] (Mus musculus, sc, 0.5 h, 10 mg/kg s.c., 0.5 h, read-out: # protected/# tested (converted)), the responders at 10 mg/kg is 37.5%. Also, the responders at 20 mg/kg in series [3] (Mus musculus, sc, 0.5 h, 20 mg/kg s.c., 0.5 h, read-out: # protected/# tested (converted)) is 87.5%. For the same compound, in series [3] (Mus musculus, sc, 0.5 h, 40 mg/kg s.c., 0.5 h, read-out: # protected/# tested (converted)), the responders at 40 mg/kg was 87.5%. Besides, the “activity in the 6 Hz 44 mA test” value in series [3] (result in words) was “activity in both 6 Hz tests was seen”. The “pharmacodynamic interaction with LEV in the 6 Hz model” value in series [3] (result in words) is “synergy was seen”.

The record behind these values is patent US20250288584A1, “COMBINATIONS COMPRISING POSITIVE ALLOSTERIC MODULATORS OR ORTHOSTERIC AGONISTS OF METABOTROPIC GLUTAMATERGIC RECEPTOR SUBTYPE 2 AND THEIR USE” (JANSSEN PHARMACEUTICA NV, priority 2014, published 2025).
